Results published in BigSolDB 2.1.

Nc1nc(N)c2nc(-c3ccccc3)c(N)nc2n1
solubility (mole fraction) (in 1,2-dichloroethane, 283.15 K): 1.72e-06 | solubility (mole fraction) (in 1,2-dichloroethane, 288.15 K): 2.31e-06 | solubility (mole fraction) (in 1,2-dichloroethane, 293.15 K): 3.52e-06 | solubility (mole fraction) (in 1,2-dichloroethane, 298.15 K): 5.23e-06 | solubility (mole fraction) (in 1,2-dichloroethane, 303.15 K): 7.52e-06 | solubility (mole fraction) (in 1,2-dichloroethane, 308.15 K): 1.07e-05 | solubility (mole fraction) (in 1,2-dichloroethane, 313.15 K): 1.7e-05 | solubility (mole fraction) (in 1,2-dichloroethane, 318.15 K): 2.38e-05 | solubility (mole fraction) (in 1,2-dichloroethane, 323.15 K): 3.55e-05 | solubility (mole fraction) (in 2-methoxyethanol, 283.15 K): 0.00188 | solubility (mole fraction) (in 2-methoxyethanol, 288.15 K): 0.00248 | solubility (mole fraction) (in 2-methoxyethanol, 293.15 K): 0.00338 | solubility (mole fraction) (in 2-methoxyethanol, 298.15 K): 0.00454 | solubility (mole fraction) (in 2-methoxyethanol, 303.15 K): 0.00605 | solubility (mole fraction) (in 2-methoxyethanol, 308.15 K): 0.00792 | solubility (mole fraction) (in 2-methoxyethanol, 313.15 K): 0.0106 | solubility (mole fraction) (in 2-methoxyethanol, 318.15 K): 0.014 | solubility (mole fraction) (in 2-methoxyethanol, 323.15 K): 0.0181 | solubility (mole fraction) (in DMSO, 293.15 K): 0.00201 | solubility (mole fraction) (in DMSO, 298.15 K): 0.00281 | solubility (mole fraction) (in DMSO, 303.15 K): 0.00381 | solubility (mole fraction) (in DMSO, 308.15 K): 0.00512 | solubility (mole fraction) (in DMSO, 313.15 K): 0.0068 | solubility (mole fraction) (in DMSO, 318.15 K): 0.00901 | solubility (mole fraction) (in DMSO, 323.15 K): 0.0118 | solubility (mole fraction) (in acetonitrile, 283.15 K): 2.52e-06 | solubility (mole fraction) (in acetonitrile, 288.15 K): 3.43e-06 | solubility (mole fraction) (in acetonitrile, 293.15 K): 5.17e-06 | solubility (mole fraction) (in acetonitrile, 298.15 K): 7.99e-06 | solubility (mole fraction) (in acetonitrile, 303.15 K): 1.16e-05 | solubility (mole fraction) (in acetonitrile, 308.15 K): 1.61e-05 | solubility (mole fraction) (in acetonitrile, 313.15 K): 2.43e-05 | solubility (mole fraction) (in acetonitrile, 318.15 K): 3.47e-05 | solubility (mole fraction) (in acetonitrile, 323.15 K): 4.99e-05 | solubility (mole fraction) (in ethyl acetate, 283.15 K): 2.91e-06 | solubility (mole fraction) (in ethyl acetate, 288.15 K): 4.53e-06 | solubility (mole fraction) (in ethyl acetate, 293.15 K): 7.32e-06 | solubility (mole fraction) (in ethyl acetate, 298.15 K): 9.44e-06 | solubility (mole fraction) (in ethyl acetate, 303.15 K): 1.42e-05 | solubility (mole fraction) (in ethyl acetate, 308.15 K): 1.95e-05 | solubility (mole fraction) (in ethyl acetate, 313.15 K): 2.8e-05 | solubility (mole fraction) (in ethyl acetate, 318.15 K): 3.98e-05 | solubility (mole fraction) (in ethyl acetate, 323.15 K): 6.09e-05 | solubility (mole fraction) (in isobutanol, 283.15 K): 2.88e-06 | solubility (mole fraction) (in isobutanol, 288.15 K): 4.02e-06 | solubility (mole fraction) (in isobutanol, 293.15 K): 6.12e-06 | solubility (mole fraction) (in isobutanol, 298.15 K): 8.74e-06 | solubility (mole fraction) (in isobutanol, 303.15 K): 1.23e-05 | solubility (mole fraction) (in isobutanol, 308.15 K): 1.71e-05 | solubility (mole fraction) (in isobutanol, 313.15 K): 2.55e-05 | solubility (mole fraction) (in isobutanol, 318.15 K): 3.79e-05 | solubility (mole fraction) (in isobutanol, 323.15 K): 5.43e-05 | solubility (mole fraction) (in isopropanol, 283.15 K): 2.02e-06 | solubility (mole fraction) (in isopropanol, 288.15 K): 3.53e-06 | solubility (mole fraction) (in isopropanol, 293.15 K): 4.92e-06 | solubility (mole fraction) (in isopropanol, 298.15 K): 7.42e-06 | solubility (mole fraction) (in isopropanol, 303.15 K): 1.06e-05 | solubility (mole fraction) (in isopropanol, 308.15 K): 1.47e-05 | solubility (mole fraction) (in isopropanol, 313.15 K): 2.08e-05 | solubility (mole fraction) (in isopropanol, 318.15 K): 2.93e-05 | solubility (mole fraction) (in isopropanol, 323.15 K): 4.19e-05 | solubility (mole fraction) (in methanol, 283.15 K): 2.91e-05 | solubility (mole fraction) (in methanol, 288.15 K): 4.31e-05 | solubility (mole fraction) (in methanol, 293.15 K): 6.36e-05 | solubility (mole fraction) (in methanol, 298.15 K): 8.42e-05 | solubility (mole fraction) (in methanol, 303.15 K): 0.000127 | solubility (mole fraction) (in methanol, 308.15 K): 0.000169 | solubility (mole fraction) (in methanol, 313.15 K): 0.00024 | solubility (mole fraction) (in methanol, 318.15 K): 0.00032 | solubility (mole fraction) (in methanol, 323.15 K): 0.000449 | solubility (mole fraction) (in n-butanol, 283.15 K): 3.32e-06 | solubility (mole fraction) (in n-butanol, 288.15 K): 5.33e-06 | solubility (mole fraction) (in n-butanol, 293.15 K): 8.08e-06 | solubility (mole fraction) (in n-butanol, 298.15 K): 1.15e-05 | solubility (mole fraction) (in n-butanol, 303.15 K): 1.61e-05 | solubility (mole fraction) (in n-butanol, 308.15 K): 2.11e-05 | solubility (mole fraction) (in n-butanol, 313.15 K): 3.11e-05 | solubility (mole fraction) (in n-butanol, 318.15 K): 4.32e-05 | solubility (mole fraction) (in n-butanol, 323.15 K): 6.48e-05 | solubility (mole fraction) (in n-methylformamide, 283.15 K): 0.000547 | solubility (mole fraction) (in n-methylformamide, 288.15 K): 0.000726 | solubility (mole fraction) (in n-methylformamide, 293.15 K): 0.00103 | solubility (mole fraction) (in n-methylformamide, 298.15 K): 0.00143 | solubility (mole fraction) (in n-methylformamide, 303.15 K): 0.00197 | solubility (mole fraction) (in n-methylformamide, 308.15 K): 0.00264 | solubility (mole fraction) (in n-methylformamide, 313.15 K): 0.00353 | solubility (mole fraction) (in n-methylformamide, 318.15 K): 0.00461 | solubility (mole fraction) (in n-methylformamide, 323.15 K): 0.00583 | solubility (mole fraction) (in n-propanol, 283.15 K): 4.24e-06 | solubility (mole fraction) (in n-propanol, 288.15 K): 6.13e-06 | solubility (mole fraction) (in n-propanol, 293.15 K): 9.12e-06 | solubility (mole fraction) (in n-propanol, 298.15 K): 1.43e-05 | solubility (mole fraction) (in n-propanol, 303.15 K): 2.02e-05 | solubility (mole fraction) (in n-propanol, 308.15 K): 2.82e-05 | solubility (mole fraction) (in n-propanol, 313.15 K): 3.88e-05 | solubility (mole fraction) (in n-propanol, 318.15 K): 5.29e-05 | solubility (mole fraction) (in n-propanol, 323.15 K): 7.03e-05 | solubility (mole fraction) (in water, 283.15 K): 1.07e-06 | solubility (mole fraction) (in water, 288.15 K): 1.29e-06 | solubility (mole fraction) (in water, 293.15 K): 1.51e-06 | solubility (mole fraction) (in water, 298.15 K): 1.79e-06 | solubility (mole fraction) (in water, 303.15 K): 2.16e-06 | solubility (mole fraction) (in water, 308.15 K): 2.64e-06 | solubility (mole fraction) (in water, 313.15 K): 3.13e-06 | solubility (mole fraction) (in water, 318.15 K): 3.76e-06 | solubility (mole fraction) (in water, 323.15 K): 4.61e-06
